Converted amounts (≈) assume the structure as drawn.
Key:
Enterococcus faecalis = assay: Antibacterial activity against Enterococcus faecalis ATCC 19433 after 18 hrs by microdilution broth method; format: functional; details: ATCC 19433, 18 h
Acinetobacter baumannii = assay: Antibacterial activity against Acinetobacter baumannii ATCC 17978 after 18 hrs by microdilution broth method; format: functional; details: ATCC 17978, 18 h
Escherichia coli = assay: Antibacterial activity against Escherichia coli CCUG after 18 hrs by microdilution broth method
Staphylococcus aureus = assay: Antibacterial activity against Staphylococcus aureus ATCC 25923 after 18 hrs by microdilution broth method; format: functional; details: ATCC 25923, 18 h
Pseudomonas aeruginosa = assay: Antibacterial activity against Pseudomonas aeruginosa ATCC 27853 after 18 hrs by microdilution broth method; format: functional; details: ATCC 27853, 18 h
Streptococcus pyogenes = assay: Antibacterial activity against Streptococcus pyogenes ATCC 12344 after 18 hrs by microdilution broth method; format: functional; details: ATCC 12344, 18 h
Bacillus spizizenii = assay: Antibacterial activity against Bacillus subtilis ATCC 6633 after 18 hrs by microdilution broth method; format: functional; details: ATCC 6633, 18 h
Klebsiella pneumoniae [1] = assay: Antibacterial activity against Klebsiella pneumoniae ATCC […] after 18 hrs by microdilution broth method; format: functional
[2] = system: Stenotrophomonas maltophilia; assay: Antibacterial activity against Stenotrophomonas maltophilia isolate 634/08 after 18 hrs by microdilution broth method; format: functional; details: isolate 634/08, 18 h
Burkholderia cepacia = assay: Antibacterial activity against Burkholderia cepacia isolate SI-R2 after 18 hrs by microdilution broth method; format: functional; details: isolate SI-R2, 18 h
Klebsiella pneumoniae [3] = assay: Antibacterial activity against Klebsiella pneumoniae isolate SI-081 after 18 hrs by microdilution broth method; format: functional; details: isolate SI-081, 18 h
Enterobacter cloacae = assay: Antibacterial activity against Enterobacter cloacae isolate VA-417/02 after 18 hrs by microdilution broth method; format: functional; details: isolate VA-417/02, 18 h

SMILES | MIC (Enterococcus faecalis) | MIC (Acinetobacter baumannii) | MIC (Escherichia coli) | MIC (Staphylococcus aureus) | MIC (Pseudomonas aeruginosa) | MIC (Streptococcus pyogenes) | MIC (Bacillus spizizenii) | MIC (Klebsiella pneumoniae [1]) | MIC [2] | MIC (Burkholderia cepacia) | MIC (Klebsiella pneumoniae [3]) | MIC (Enterobacter cloacae)
CNC(=O)NC(=N)NCCCCCCCCN(CCCCCCCCNC(=N)NC(=O)NC)C(=O)N(CCCCCCCCNC(=N)NCC1CC1)CCCCCCCCNC(=N)NCC1CC1 | 4 µg/mL (≈ 4.17 µM) | 8 µg/mL (≈ 8.34 µM) | 4 µg/mL (≈ 4.17 µM) | 2 µg/mL (≈ 2.08 µM) | 16 µg/mL (≈ 16.7 µM) | 2 µg/mL (≈ 2.08 µM) | 2 µg/mL (≈ 2.08 µM) | 4 µg/mL (≈ 4.17 µM) | – | – | – | –
CCNC(=N)NCCCCCCN(CCCCCCNC(=N)N)C(=O)N(CCCCCCNC(=N)NCC)CCCCCCNC(=N)NCC | 64 µg/mL (≈ 90.3 µM) | 256 µg/mL (≈ 361 µM) | 64 µg/mL (≈ 90.3 µM) | 32 µg/mL (≈ 45.1 µM) | > 256 µg/mL | 4 µg/mL (≈ 5.64 µM) | 16 µg/mL (≈ 22.6 µM) | 128 µg/mL (≈ 181 µM) | – | – | – | –
N=C(N)NCCCCCCCCN(CCCCCCCCNC(=N)NCc1ccccc1)C(=O)N(CCCCCCCCNC(=N)N)CCCCCCCCNC(=N)NCc1ccccc1 | 2 µg/mL (≈ 2.18 µM) | 8 µg/mL (≈ 8.72 µM) | 4 µg/mL (≈ 4.36 µM) | 2 µg/mL (≈ 2.18 µM) | 16 µg/mL (≈ 17.4 µM) | 2 µg/mL (≈ 2.18 µM) | 2 µg/mL (≈ 2.18 µM) | 2 µg/mL (≈ 2.18 µM) | 8 µg/mL (≈ 8.72 µM) | 16 µg/mL (≈ 17.4 µM) | 8 µg/mL (≈ 8.72 µM) | 4 µg/mL (≈ 4.36 µM)
CCCCCCCCCC(=O)N[C@@H](Cc1c[nH]c2ccccc12)C(=O)N[C@H](CC(N)=O)C(=O)N[C@@H](CC(=O)O)C(=O)N[C@@H]1C(=O)NCC(=O)N[C@@H](CCCN)C(=O)N[C@@H](CC(=O)O)C(=O)N[C@H](C)C(=O)N[C@@H](CC(=O)O)C(=O)NCC(=O)N[C@H](CO)C(=O)N[C@@H]([C@H](C)CC(=O)O)C(=O)N[C@@H](CC(=O)c2ccccc2N)C(=O)O[C@@H]1C | 1 µg/mL (≈ 0.617 µM) | – | – | 0.5 µg/mL (≈ 0.309 µM) | – | 0.12 µg/mL (≈ 0.074 µM) | 1 µg/mL (≈ 0.617 µM) | – | – | – | – | –
N=C(N)NCCCCCCN(CCCCCCNC(=N)NCC1CC1)C(=O)N(CCCCCCNC(=N)NCC1CC1)CCCCCCNC(=N)NCC1CC1 | 16 µg/mL (≈ 20.3 µM) | 64 µg/mL (≈ 81.3 µM) | 8 µg/mL (≈ 10.2 µM) | 4 µg/mL (≈ 5.08 µM) | 128 µg/mL (≈ 163 µM) | 2 µg/mL (≈ 2.54 µM) | 4 µg/mL (≈ 5.08 µM) | 16 µg/mL (≈ 20.3 µM) | – | – | – | –
CN[C@H](CC(C)C)C(=O)N[C@H]1C(=O)N[C@@H](CC(N)=O)C(=O)N[C@H]2C(=O)N[C@H]3C(=O)N[C@H](C(=O)N[C@H](C(=O)O)c4cc(O)cc(O)c4-c4cc3ccc4O)[C@H](O)c3ccc(c(Cl)c3)Oc3cc2cc(c3O[C@@H]2O[C@H](CO)[C@@H](O)[C@H](O)[C@H]2O[C@H]2C[C@](C)(N)[C@H](O)[C@H](C)O2)Oc2ccc(cc2Cl)[C@H]1O [VANCOMYCIN] | 1 µg/mL (≈ 0.69 µM) | – | – | – | – | – | 0.5 µg/mL (≈ 0.345 µM) | – | – | – | – | –
CCNC(=N)NCCCCCCCCN(CCCCCCCCNC(=N)N)C(=O)N(CCCCCCCCNC(=N)N)CCCCCCCCNC(=N)NCC | 1 µg/mL (≈ 1.26 µM) | 16 µg/mL (≈ 20.2 µM) | 2 µg/mL (≈ 2.52 µM) | 1 µg/mL (≈ 1.26 µM) | 16 µg/mL (≈ 20.2 µM) | 0.5 µg/mL (≈ 0.63 µM) | 1 µg/mL (≈ 1.26 µM) | 2 µg/mL (≈ 2.52 µM) | 16 µg/mL (≈ 20.2 µM) | 32 µg/mL (≈ 40.3 µM) | 4 µg/mL (≈ 5.04 µM) | 4 µg/mL (≈ 5.04 µM)
N=C(NCCCCCCCCN(CCCCCCCCNC(=N)NCC1CC1)C(=O)N(CCCCCCNC(=N)NCC1CC1)CCCCCCNC(=N)NCC1CC1)NCC1CC1 | 8 µg/mL (≈ 8.91 µM) | 64 µg/mL (≈ 71.3 µM) | 4 µg/mL (≈ 4.46 µM) | 2 µg/mL (≈ 2.23 µM) | 128 µg/mL (≈ 143 µM) | 1 µg/mL (≈ 1.11 µM) | 4 µg/mL (≈ 4.46 µM) | 4 µg/mL (≈ 4.46 µM) | – | – | – | –
N=C(N)NCCCCCCN(CCCCCCNC(=N)NCC1CC1)C(=O)N(CCCCCCNC(=N)N)CCCCCCNC(=N)NCC1CC1 | 32 µg/mL (≈ 43.6 µM) | 128 µg/mL (≈ 175 µM) | 16 µg/mL (≈ 21.8 µM) | 4 µg/mL (≈ 5.46 µM) | 256 µg/mL (≈ 349 µM) | 2 µg/mL (≈ 2.73 µM) | 4 µg/mL (≈ 5.46 µM) | 32 µg/mL (≈ 43.6 µM) | – | – | – | –
N=C(N)NCCCCCCCCN(CCCCCCCCNC(=N)N)C(=O)N(CCCCCCCCNC(=N)NCC1CC1)CCCCCCCCNC(=N)NCC1CC1 | 8 µg/mL (≈ 9.46 µM) | 16 µg/mL (≈ 18.9 µM) | 4 µg/mL (≈ 4.73 µM) | 8 µg/mL (≈ 9.46 µM) | 16 µg/mL (≈ 18.9 µM) | 4 µg/mL (≈ 4.73 µM) | 2 µg/mL (≈ 2.37 µM) | 4 µg/mL (≈ 4.73 µM) | – | – | – | –
N=C(NCCCCCCCCN(CCCCCCCCNC(=N)NCc1ccccc1)C(=O)N(CCCCCCCCNC(=N)NCc1ccccc1)CCCCCCCCNC(=N)NCc1ccccc1)NCc1ccccc1 | 4 µg/mL (≈ 3.64 µM) | 16 µg/mL (≈ 14.6 µM) | 4 µg/mL (≈ 3.64 µM) | 8 µg/mL (≈ 7.29 µM) | 8 µg/mL (≈ 7.29 µM) | 1 µg/mL (≈ 0.911 µM) | 4 µg/mL (≈ 3.64 µM) | 4 µg/mL (≈ 3.64 µM) | – | – | – | –
